Laboratory results published in patent US8338616B2, “Thiazoliums and their use for treating protein aging associated diseases” (Beijing Molecule Science And Technology Co., Ltd., priority 2008, dated 2012).

How the values were obtained:
AGEs = conditions: studies in rats, beagles (oral) and mice, CN200610002391.6; cited from earlier work
[1] = tested on: NaCl treated diabetic rats modeled with heart failure; assay: Chronic heart failure, first batch, ultrasonic cardiogram evaluation; assay type: in vivo, rat; conditions: 10th week of administration; valsartan 10 mg/kg, compound A 18 mg/kg ig
Protocol: The pharmacodynamic evaluation was conducted by using a noninvasive ultrasonic cardiogram method.
Evaluation indexes: (1) morphology indexes: left ventricular posterior wall dimensions (LVPWd), left ventricular diastasis internal diameter (LVDd), end systolic diameter (LVDs); (2) functional indexes: ejection fraction (EF), shortening fraction (FS), ventricular early blood flow filling rate (E), atrial filling rate (A) and ratio of E/A; Doppler tissue image; at cardiac apical four chamber view, the valve ring of anterior mitral valve was used as sampling point, peak early diastolic velocity (Ea peak), peak late diastolic velocity (Aa peak), and Ea/Aa ratio reflected the systolic and diastolic motion of the whole left ventricle.
SPSS statistic software was used to analyze and treat data, and all data were expressed in mean±standard deviation (Mean±SD).

| Structure (SMILES) | breaking effect on AGEs (AGEs) | LVDd and LVDs vs model [1] | PWd vs model [1] |
| --- | --- | --- | --- |
| Cc1csc[n+]1CC(=O)OCc1ccccc1.[Br-] [3-benzyloxycarbonylmethyl-4-methyl-thiazole-3-bromide] | excellent breaking effect on AGEs |  |  |
| CCCCC(=O)N(Cc1ccc(-c2ccccc2-c2nnn[nH]2)cc1)[C@H](C(=O)O)C(C)C [valsartan, reference compound] |  | slight decrease | slight increase |
